{"source": "ChEMBL document CHEMBL1201862", "about": "“PubChem BioAssay data set” (2004)", "key": {"[1]": {"assay": "viability loss of HPDE-C7K cells – cell-based, fluorescence, HTS, primary screen (AID 431)", "type": "functional", "conditions": "Homo sapiens"}, "[2]": {"assay": "HPDE-C7 pancreatic duct cell viability loss – fluorescence, HTS (AID 430)", "type": "functional, cell-based", "conditions": "Homo sapiens"}, "Estrogen receptor beta [3]": {"biological_target": "T1, Estrogen receptor beta (Homo sapiens, UniProt Q92731)", "T1 sequence (Q92731 whole entry)": "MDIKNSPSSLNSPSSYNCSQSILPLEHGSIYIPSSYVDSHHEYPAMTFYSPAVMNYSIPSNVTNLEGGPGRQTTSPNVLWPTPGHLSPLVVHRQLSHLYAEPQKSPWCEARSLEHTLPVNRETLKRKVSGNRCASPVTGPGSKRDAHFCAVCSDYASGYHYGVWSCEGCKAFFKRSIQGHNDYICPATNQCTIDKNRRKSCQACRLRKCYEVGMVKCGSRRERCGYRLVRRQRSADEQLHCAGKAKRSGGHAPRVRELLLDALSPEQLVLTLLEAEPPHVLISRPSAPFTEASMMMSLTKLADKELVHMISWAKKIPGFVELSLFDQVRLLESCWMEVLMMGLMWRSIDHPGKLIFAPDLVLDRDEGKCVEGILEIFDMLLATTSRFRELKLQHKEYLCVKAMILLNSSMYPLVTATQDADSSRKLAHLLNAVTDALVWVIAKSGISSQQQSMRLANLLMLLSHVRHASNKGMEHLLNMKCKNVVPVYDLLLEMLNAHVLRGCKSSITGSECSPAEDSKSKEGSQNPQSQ", "assay": "blockers of SRC-3 recruitment to ERβ – biochemical, ELISA, streptavidin-HRP readout, orthogonal assay, confirmation (AID 1060)"}, "Estrogen receptor beta [4]": {"biological_target": "T1, Estrogen receptor beta"}, "[5]": {"biological_target": "Sphingosine 1-phosphate receptor 2 (Homo sapiens, UniProt O95136)", "sequence (O95136 whole entry)": "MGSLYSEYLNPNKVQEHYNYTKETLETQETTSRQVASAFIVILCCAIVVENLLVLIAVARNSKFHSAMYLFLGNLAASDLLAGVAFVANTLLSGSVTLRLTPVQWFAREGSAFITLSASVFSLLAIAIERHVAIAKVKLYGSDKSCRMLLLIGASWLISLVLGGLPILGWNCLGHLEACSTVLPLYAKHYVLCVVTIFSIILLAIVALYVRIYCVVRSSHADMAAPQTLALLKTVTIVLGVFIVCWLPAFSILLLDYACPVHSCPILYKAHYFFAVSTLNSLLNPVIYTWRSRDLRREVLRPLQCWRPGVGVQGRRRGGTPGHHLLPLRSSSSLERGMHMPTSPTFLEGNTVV", "assay": "Dose Response Cell Based Assay for Agonists of the S1P2 Receptor of Purchased Analogues. [Related pubchem assays: 729, 843, 854, 736 ]", "type": "functional"}, "[6]": {"assay": "THP-1 cell cytotoxicity, dose response, cytotoxicity control for non-replicating M. tuberculosis project (AID 489025)", "type": "functional"}, "cells [7]": {"assay": "cells", "type": "functional"}, "cells [8]": {"assay": "cells"}, "[9]": {"assay": "Trypanosoma cruzi growth suppression in host cells – NIH3T3 host cells, beta-gal luminescence, confirmation (AID 2044);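 note: intracellular parasites grown in NIH/3T3 mouse fibroblasts as host cells; luminescent beta-galactosidase reporter signal from transgenic T. cruzi replicating inside host cells; inhibitors lower the luminescence signal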", "type": "functional, cell-based"}, "[10]": {"assay": "NIH3T3 cell viability loss – ATP luminescence, mouse fibroblasts, counter-screen, dose response (AID 2010);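 note: cells exposed to compound for about 90 hours before reading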", "type": "functional, cell-based"}, "[11]": {"biological_target": "T2, Microphthalmia-associated transcription factor (Homo sapiens, UniProt O75030)", "T2 sequence (O75030 whole entry)": "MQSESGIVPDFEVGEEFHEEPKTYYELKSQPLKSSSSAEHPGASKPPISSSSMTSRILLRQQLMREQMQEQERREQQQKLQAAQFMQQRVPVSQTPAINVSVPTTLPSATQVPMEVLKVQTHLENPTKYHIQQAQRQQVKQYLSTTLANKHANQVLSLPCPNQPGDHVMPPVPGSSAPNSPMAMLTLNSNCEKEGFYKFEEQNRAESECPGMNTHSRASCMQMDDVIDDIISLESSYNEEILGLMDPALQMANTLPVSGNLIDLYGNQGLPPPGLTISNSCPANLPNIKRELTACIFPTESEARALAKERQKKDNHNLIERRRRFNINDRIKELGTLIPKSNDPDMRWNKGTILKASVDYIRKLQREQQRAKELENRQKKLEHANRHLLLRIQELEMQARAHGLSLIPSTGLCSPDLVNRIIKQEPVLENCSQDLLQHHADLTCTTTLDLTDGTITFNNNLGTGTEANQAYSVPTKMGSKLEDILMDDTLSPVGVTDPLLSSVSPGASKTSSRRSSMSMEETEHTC", "assay": "reducers of TRPM1 reporter luminescence, concentration series – cell-based, SK-MEL-5, cherry-picked, set 3, MITF inhibitor project, dose response (AID 493073);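 note: SK-MEL-5 melanoma cells with luciferase driven by the MITF target TRPM1 promoter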", "type": "functional"}, "[12]": {"biological_target": "T3, Orexin/Hypocretin receptor type 1 (Homo sapiens, UniProt O43613)", "T3 sequence (O43613 whole entry)": "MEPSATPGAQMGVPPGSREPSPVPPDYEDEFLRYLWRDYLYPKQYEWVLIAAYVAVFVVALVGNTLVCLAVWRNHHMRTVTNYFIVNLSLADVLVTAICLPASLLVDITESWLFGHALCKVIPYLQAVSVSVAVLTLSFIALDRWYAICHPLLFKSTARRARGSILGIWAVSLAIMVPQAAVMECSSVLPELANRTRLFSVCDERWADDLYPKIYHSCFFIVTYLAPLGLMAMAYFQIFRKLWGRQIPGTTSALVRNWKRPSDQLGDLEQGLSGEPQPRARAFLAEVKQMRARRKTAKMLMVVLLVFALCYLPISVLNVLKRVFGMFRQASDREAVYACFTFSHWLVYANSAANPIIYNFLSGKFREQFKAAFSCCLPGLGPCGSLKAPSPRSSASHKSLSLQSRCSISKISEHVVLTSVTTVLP", "assay": "(§1) Fluorescence-based cell-based high throughput dose response assay for antagonists of the orexin 1 receptor (OX1R; HCRTR1). [Related pubchem assays (depositor defined):AID434989, AID435008, AID463079, AID485270, AID492963, AID492964, AID492965, AID493232, AID504717, AID504718]", "type": "functional"}, "cells [13]": {"assay": "cells", "type": "functional, cell-based"}, "BJ [14]": {"test_system": "BJ", "assay": "BJ-TERT fibroblast viability loss – cell-based, RAS-independent, luminescence, dose response (AID 1933)", "type": "functional", "conditions": "Homo sapiens"}, "Orexin receptor type 2 [15]": {"biological_target": "T4, Orexin receptor type 2 (Homo sapiens, UniProt O43614)", "T4 sequence (O43614 whole entry)": "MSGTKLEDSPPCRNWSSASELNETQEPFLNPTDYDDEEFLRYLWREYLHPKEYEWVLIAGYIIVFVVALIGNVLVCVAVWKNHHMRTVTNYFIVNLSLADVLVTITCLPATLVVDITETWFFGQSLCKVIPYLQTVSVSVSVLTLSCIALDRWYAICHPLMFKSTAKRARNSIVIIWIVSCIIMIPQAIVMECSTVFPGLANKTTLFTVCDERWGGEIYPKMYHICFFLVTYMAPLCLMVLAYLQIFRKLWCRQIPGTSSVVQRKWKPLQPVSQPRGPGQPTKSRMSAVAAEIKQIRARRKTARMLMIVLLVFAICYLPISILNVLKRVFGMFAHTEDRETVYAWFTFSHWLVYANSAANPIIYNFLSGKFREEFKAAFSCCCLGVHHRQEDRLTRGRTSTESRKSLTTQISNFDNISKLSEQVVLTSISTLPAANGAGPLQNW", "assay": "Counterscreen assay for antagonists of the orexin 1 receptor (OX1R; HCRTR1): Fluorescence-based cell-based dose response assay for antagonists of the orexin 2 receptor (OX2R; HCRTR2), run by assay provider.", "type": "functional"}, "[16]": {"assay": "DRD fibroblast viability loss – cell-based, non-viral oncogenic, luminescence, dose response (AID 1934)", "type": "functional", "conditions": "Homo sapiens"}, "[17]": {"biological_target": "T3, Orexin/Hypocretin receptor type 1", "assay": "as §1, with “Homogeneous Time Resolved Fluorescence (HTRF)-based” for “Fluorescence-based”", "type": "functional"}, "CHO-K1": {"test_system": "CHO-K1", "assay": "(§2) Counterscreen for antagonists of the orexin 1 receptor (OX1R; HCRTR1): Homogeneous time resolved fluorescence (HTRF)-based cell-based dose response assay to identify antagonists of the parental CHO-K1 cell line. [Related pubchem assays (depositor defined):AID434989, AID435008, AID463079, AID485270, AID492963, AID492964, AID492965, AID493232, AID504699, AID504701]", "type": "functional", "conditions": "Cricetulus griseus"}, "BJ [18]": {"test_system": "BJ", "assay": "cells", "type": "functional, cell-based", "conditions": "Homo sapiens"}, "[19]": {"assay": "as §2, with “Fluorescence-based” for “Homogeneous time resolved fluorescence (HTRF)-based”, “cell-based high throughput” for “cell-based”, “CHO” for “CHO-K1”", "type": "functional"}, "BJ [20]": {"test_system": "BJ", "assay": "growth inhibition of engineered Ras-driven BJ cells – cell-based, alamar blue fluorescence, cherrypicked samples, dose response (AID 2631)", "type": "functional", "conditions": "Homo sapiens"}, "[21]": {"biological_target": "T5, RNA-binding protein pos-1 (Caenorhabditis elegans, UniProt G5EF15)", "T5 sequence (G5EF15 whole entry)": "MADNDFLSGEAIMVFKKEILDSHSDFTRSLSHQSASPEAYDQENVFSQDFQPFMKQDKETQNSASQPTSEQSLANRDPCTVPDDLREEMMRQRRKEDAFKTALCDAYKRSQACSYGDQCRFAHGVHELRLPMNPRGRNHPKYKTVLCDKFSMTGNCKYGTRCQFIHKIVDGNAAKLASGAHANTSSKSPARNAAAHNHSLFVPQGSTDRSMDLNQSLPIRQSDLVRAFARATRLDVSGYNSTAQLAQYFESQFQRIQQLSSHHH", "assay": "disruptors of C. elegans POS-1 RNA interaction – biochemical, fluorescence polarization, dose response (AID 1964)"}, "[22]": {"biological_target": "T6, Zinc finger protein mex-5 (Caenorhabditis elegans, UniProt Q9XUB2)", "T6 sequence (Q9XUB2 whole entry)": "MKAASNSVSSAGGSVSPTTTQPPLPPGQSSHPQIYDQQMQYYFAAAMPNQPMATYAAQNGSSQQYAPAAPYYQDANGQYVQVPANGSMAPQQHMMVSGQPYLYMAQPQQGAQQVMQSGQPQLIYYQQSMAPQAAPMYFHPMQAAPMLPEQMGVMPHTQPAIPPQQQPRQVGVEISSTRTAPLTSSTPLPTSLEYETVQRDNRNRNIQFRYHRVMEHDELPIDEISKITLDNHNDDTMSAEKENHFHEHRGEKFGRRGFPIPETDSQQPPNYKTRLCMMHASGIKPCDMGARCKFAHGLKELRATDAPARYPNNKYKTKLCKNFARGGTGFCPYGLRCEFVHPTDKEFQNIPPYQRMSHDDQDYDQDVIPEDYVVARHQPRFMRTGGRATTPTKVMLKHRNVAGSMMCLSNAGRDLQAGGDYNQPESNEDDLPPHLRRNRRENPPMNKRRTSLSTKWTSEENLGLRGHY", "assay": "potency of MEX-5 RNA-binding blockers – biochemical, C. elegans, fluorescence polarization, dose response (AID 1960)"}, "Vero": {"test_system": "Vero", "assay": "mammalian cell viability reduction – secondary assay, cytotoxicity control for West Nile virus antiviral project, dose response (AID 1650)", "type": "functional", "conditions": "Chlorocebus sabaeus"}, "[23]": {"assay": "NIH-3T3 fibroblast cytotoxicity, dose response, cytotoxicity control, cell-based, fluorescence, Alamar Blue, secondary assay (AID 2327)", "type": "functional"}, "BJ [24]": {"test_system": "BJ", "assay": "BJ-TERT-LT-ST fibroblast viability loss – cell-based, RAS-independent, luminescence, dose response (AID 1935)", "type": "functional", "conditions": "Homo sapiens"}, "INS1": {"test_system": "INS1", "assay": "INS-1E survival protection against cytokine death – cell-based, luminescence, retest, dose response (AID 449756)", "type": "functional", "conditions": "Rattus norvegicus"}, "Orexin receptor type 2 [25]": {"biological_target": "T4, Orexin receptor type 2", "assay": "Counterscreen assay for antagonists of the orexin 1 receptor (OX1R; HCRTR1): Homogeneous Time Resolved Fluorescence (HTRF)-based cell-based dose response assay for antagonists of the orexin 2 receptor (OX2R; HCRTR2), run by assay provider.", "type": "functional"}, "cells [26]": {"assay": "cells", "type": "functional, cell-based", "remark": "listed apart in the source"}, "[27]": {"assay": "fluconazole-exposed Candida albicans growth modulators – fluorescence, retest, confirmation (AID 2467)", "type": "functional, cell-based"}}, "note": "Activity calls are given as the source filed them."}
{"smiles": "N#CC1=C(SCC(=O)Nc2cccc3cccnc23)NC(=O)C(C#N)C12CCCCC2", "note": "(stereo unspecified)", "values": [{"measurement": "EC50", "setting": "[1]", "result": "> 20 µM (not active)"}, {"measurement": "EC50", "setting": "[2]", "result": "> 20 µM (not active)"}, {"measurement": "IC50", "setting": "Estrogen receptor beta [3]", "result": "> 50 µM (not active)"}, {"measurement": "IC50", "setting": "Estrogen receptor beta [4]", "result": "> 50 µM (not active)"}]}
{"smiles": "Cc1cc(C(=O)CSc2nnnn2C(C)(C)C)c(C)n1Cc1ccccc1", "values": [{"measurement": "EC50", "setting": "[5]", "result": "> 30 µM (not active)"}]}
{"smiles": "CC(=O)c1cccc(OCC(=O)c2cc(C)n(Cc3ccccc3)c2C)c1", "values": [{"measurement": "EC50", "setting": "[5]", "result": "> 30 µM (not active)"}]}
{"smiles": "Cc1cc(C)cc(OCC(=O)N/N=C/c2ccc([N+](=O)[O-])o2)c1", "values": [{"measurement": "CC50", "setting": "[6]", "result": "31.5 µM (active)"}, {"measurement": "IC50", "setting": "cells [7]", "result": "2.7 µM (active)"}, {"measurement": "EC50", "setting": "cells [8]", "result": "0.153 µM (active)"}, {"measurement": "EC50", "setting": "[9]", "result": "< 0.1 µM (active)"}, {"measurement": "EC50", "setting": "[10]", "result": "33.5 µM (active)"}, {"measurement": "AC50", "setting": "[11]", "result": "7.12 µM (active)"}]}
{"smiles": "CCN(CC)c1ccc(/C=N/NC(=O)c2ccco2)c(O)c1", "values": [{"measurement": "IC50", "setting": "[12]", "result": "4.03 µM (active)"}, {"measurement": "EC50", "setting": "cells [13]", "result": "10.3 µM (active)"}, {"measurement": "EC50", "setting": "BJ [14]", "result": "2.7 µM (inconclusive)"}, {"measurement": "IC50", "setting": "Orexin receptor type 2 [15]", "result": "> 88.8 µM (inactive)"}, {"measurement": "EC50", "setting": "[16]", "result": "2.58 µM (active)"}, {"measurement": "IC50", "setting": "[17]", "result": "2.83 µM (active)"}, {"measurement": "IC50", "setting": "CHO-K1", "result": "> 66.3 µM (inactive)"}, {"measurement": "EC50", "setting": "BJ [18]", "result": "3.34 µM (active)"}, {"measurement": "IC50", "setting": "[19]", "result": "> 49.8 µM (inactive)"}, {"measurement": "EC50", "setting": "BJ [20]", "result": "0.966 µM (active)"}, {"measurement": "EC50", "setting": "[21]", "result": "> 300 µM (not active)"}, {"measurement": "EC50", "setting": "[22]", "result": "> 300 µM (not active)"}, {"measurement": "CC50", "setting": "Vero", "result": "5.13 µM (active)"}, {"measurement": "EC50", "setting": "[23]", "result": "2.76 µM (inconclusive)"}, {"measurement": "EC50", "setting": "BJ [24]", "result": "2.66 µM (active)"}, {"measurement": "AC50", "setting": "INS1", "result": "0.638 µM (active)"}, {"measurement": "IC50", "setting": "Orexin receptor type 2 [25]", "result": "> 50 µM (inactive)"}, {"measurement": "EC50", "setting": "cells [26]", "result": "9.18 µM (active)"}, {"measurement": "EC50", "setting": "[27]", "result": "0.787 µM (active)"}]}
